From ChEMBL document CHEMBL1152560, “Substituted 2-arylbenzothiazoles as kinase inhibitors: hit-to-lead optimization” (Bioorg Med Chem, 2009)

Experiments:
[1] = target: T1, Ephrin type-A receptor 3 (Homo sapiens) (UniProt P29320); assay: Residual activity of EPHA3 at 1 uM by microplate scintillation counting
T1 sequence (whole entry): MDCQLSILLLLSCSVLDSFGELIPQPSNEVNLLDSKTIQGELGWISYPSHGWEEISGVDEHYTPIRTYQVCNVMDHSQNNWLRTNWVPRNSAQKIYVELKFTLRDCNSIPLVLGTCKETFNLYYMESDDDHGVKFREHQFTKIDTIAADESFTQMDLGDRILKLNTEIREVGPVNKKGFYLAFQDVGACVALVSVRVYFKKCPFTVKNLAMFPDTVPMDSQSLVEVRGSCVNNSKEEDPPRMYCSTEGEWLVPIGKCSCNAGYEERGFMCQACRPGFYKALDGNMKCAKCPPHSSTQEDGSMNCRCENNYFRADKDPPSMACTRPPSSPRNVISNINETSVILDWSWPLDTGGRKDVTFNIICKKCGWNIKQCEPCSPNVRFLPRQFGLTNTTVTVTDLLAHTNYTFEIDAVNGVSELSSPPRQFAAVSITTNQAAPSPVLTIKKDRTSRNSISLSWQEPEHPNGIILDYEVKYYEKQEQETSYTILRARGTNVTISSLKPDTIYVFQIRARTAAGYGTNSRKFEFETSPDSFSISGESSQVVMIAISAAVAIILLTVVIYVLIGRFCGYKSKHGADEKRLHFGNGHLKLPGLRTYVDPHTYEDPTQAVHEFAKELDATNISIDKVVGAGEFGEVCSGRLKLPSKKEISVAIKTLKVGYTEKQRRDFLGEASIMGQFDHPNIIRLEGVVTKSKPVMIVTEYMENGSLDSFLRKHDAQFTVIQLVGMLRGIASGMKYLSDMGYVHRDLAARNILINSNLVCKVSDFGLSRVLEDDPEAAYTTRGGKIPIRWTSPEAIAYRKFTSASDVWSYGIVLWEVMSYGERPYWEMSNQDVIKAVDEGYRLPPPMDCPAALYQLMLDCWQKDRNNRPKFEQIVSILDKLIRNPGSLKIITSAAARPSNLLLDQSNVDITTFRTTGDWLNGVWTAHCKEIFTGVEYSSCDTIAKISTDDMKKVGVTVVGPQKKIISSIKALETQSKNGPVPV

[2] = target: Mitogen-activated protein kinase 1 (Homo sapiens) (UniProt P28482); assay: Residual activity of ERK2 at 1 uM by microplate scintillation counting
[3] = test system: Fibroblast growth factor receptor 1 (Homo sapiens), P11362 [V561M]; assay: Residual activity of FGFR1 V561M mutant at 0.1 uM by microplate scintillation counting
[4] = target: Fibroblast growth factor receptor 3 (Homo sapiens) (UniProt P22607); assay: Residual activity of FGFR3 at 0.1 uM by microplate scintillation counting
[5] = target: T2, Tyrosine-protein kinase Mer (Homo sapiens) (UniProt Q12866); assay: Residual activity of MERTK at 0.1 uM by microplate scintillation counting
T2 sequence (whole entry): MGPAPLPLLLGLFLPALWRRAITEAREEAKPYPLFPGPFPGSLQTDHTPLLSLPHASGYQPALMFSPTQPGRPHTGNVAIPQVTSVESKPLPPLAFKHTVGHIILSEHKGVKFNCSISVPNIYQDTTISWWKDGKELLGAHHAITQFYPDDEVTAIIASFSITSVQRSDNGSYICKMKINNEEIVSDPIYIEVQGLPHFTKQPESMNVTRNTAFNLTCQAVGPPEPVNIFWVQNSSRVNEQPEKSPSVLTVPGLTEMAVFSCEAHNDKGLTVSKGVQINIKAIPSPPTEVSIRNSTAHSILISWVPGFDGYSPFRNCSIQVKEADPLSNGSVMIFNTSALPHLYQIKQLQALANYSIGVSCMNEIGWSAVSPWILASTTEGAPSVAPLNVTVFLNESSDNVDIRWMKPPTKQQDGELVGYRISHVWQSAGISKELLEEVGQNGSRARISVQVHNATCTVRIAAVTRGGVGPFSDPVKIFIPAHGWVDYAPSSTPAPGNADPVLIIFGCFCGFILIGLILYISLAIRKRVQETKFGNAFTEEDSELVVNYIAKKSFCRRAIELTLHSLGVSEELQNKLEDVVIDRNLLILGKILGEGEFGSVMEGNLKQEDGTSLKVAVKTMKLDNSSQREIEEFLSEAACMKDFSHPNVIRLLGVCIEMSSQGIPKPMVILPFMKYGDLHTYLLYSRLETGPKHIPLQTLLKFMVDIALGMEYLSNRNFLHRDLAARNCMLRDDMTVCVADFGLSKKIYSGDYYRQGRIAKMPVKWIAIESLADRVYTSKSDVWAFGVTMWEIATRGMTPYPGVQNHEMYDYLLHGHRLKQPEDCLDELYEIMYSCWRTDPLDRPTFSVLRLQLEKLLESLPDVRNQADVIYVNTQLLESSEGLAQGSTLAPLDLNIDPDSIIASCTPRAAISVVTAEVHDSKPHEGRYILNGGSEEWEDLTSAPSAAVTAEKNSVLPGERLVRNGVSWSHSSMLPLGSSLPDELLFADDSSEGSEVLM

[6] = target: SRSF protein kinase 2 (Homo sapiens) (UniProt P78362); assay: Residual activity of SRPK2 at 1 uM by microplate scintillation counting
[7] = target: BDNF/NT-3 growth factors receptor (Homo sapiens) (UniProt Q16620); assay: Residual activity of TRK-B at 1 uM by microplate scintillation counting
[8] = target: Tyrosine-protein kinase Yes (Homo sapiens) (UniProt P07947); assay: Residual activity of YES at 1 uM by microplate scintillation counting
[9] = target: Cyclin-dependent kinase 2/cyclin E1 (Homo sapiens) (UniProt P24864+P24941); assay: Residual activity of CDK2/Cyclin E at 10 uM by microplate scintillation counting; format: protein-complex assay
[10] = target: Calcium/calmodulin-dependent protein kinase type II subunit delta (Homo sapiens) (UniProt Q13557); assay: Residual activity of CAMK2D at 1 uM by microplate scintillation counting
[11] = target: Serine/threonine-protein kinase N2 (Homo sapiens) (UniProt Q16513); assay: Residual activity of PRK2 at 10 uM by microplate scintillation counting
[12] = target: Rho-associated protein kinase 1 (Homo sapiens) (UniProt Q13464); assay: Residual activity of ROCK1 at 0.1 uM by microplate scintillation counting
Angiopoietin-1 receptor = Angiopoietin-1 receptor (Homo sapiens, UniProt Q02763); assay: Inhibition of TIE2 by microplate scintillation counting

Chain of SRSF protein kinase 2 (Homo sapiens) (P78362 whole entry, looked up): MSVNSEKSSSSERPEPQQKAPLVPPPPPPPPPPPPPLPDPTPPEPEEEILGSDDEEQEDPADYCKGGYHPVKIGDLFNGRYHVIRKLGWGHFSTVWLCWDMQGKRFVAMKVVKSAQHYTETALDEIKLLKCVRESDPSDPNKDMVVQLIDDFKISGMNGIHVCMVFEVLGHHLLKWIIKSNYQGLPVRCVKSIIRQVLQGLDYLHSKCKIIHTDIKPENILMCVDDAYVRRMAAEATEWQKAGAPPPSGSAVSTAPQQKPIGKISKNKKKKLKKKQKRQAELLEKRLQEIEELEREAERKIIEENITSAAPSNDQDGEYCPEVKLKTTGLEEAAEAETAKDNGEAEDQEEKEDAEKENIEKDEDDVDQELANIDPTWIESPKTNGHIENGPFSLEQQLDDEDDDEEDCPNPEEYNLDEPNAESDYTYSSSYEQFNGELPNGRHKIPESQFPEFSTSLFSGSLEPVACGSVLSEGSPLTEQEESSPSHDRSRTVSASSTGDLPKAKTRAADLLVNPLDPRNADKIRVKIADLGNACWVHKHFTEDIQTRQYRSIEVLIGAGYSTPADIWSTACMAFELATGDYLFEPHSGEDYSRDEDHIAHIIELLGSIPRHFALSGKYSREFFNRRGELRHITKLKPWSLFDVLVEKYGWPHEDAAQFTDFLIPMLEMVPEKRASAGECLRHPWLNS
Chain of Fibroblast growth factor receptor 3 (Homo sapiens) (P22607 23-806 limits assumed): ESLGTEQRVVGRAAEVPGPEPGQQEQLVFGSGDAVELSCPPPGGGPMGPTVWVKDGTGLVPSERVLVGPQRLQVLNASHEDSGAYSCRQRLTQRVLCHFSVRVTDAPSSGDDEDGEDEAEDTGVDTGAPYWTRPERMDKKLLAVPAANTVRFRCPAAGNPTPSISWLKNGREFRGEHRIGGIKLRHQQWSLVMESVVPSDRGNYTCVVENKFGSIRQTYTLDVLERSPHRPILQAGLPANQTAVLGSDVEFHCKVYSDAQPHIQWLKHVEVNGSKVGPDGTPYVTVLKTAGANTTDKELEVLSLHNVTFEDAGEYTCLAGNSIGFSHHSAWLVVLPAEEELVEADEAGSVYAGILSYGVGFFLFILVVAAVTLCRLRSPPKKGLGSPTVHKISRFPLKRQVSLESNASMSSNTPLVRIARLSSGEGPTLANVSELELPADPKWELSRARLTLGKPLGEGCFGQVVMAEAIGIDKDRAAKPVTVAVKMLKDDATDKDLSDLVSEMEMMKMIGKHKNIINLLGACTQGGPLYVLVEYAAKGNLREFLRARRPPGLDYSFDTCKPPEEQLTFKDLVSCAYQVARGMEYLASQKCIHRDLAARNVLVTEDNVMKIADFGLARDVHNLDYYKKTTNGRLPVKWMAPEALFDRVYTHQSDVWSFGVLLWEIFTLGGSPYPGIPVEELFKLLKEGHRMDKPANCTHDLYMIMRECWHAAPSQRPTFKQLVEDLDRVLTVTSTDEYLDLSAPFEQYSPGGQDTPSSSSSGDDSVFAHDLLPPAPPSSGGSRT
Chain of Mitogen-activated protein kinase 1 (Homo sapiens) (P28482 whole entry): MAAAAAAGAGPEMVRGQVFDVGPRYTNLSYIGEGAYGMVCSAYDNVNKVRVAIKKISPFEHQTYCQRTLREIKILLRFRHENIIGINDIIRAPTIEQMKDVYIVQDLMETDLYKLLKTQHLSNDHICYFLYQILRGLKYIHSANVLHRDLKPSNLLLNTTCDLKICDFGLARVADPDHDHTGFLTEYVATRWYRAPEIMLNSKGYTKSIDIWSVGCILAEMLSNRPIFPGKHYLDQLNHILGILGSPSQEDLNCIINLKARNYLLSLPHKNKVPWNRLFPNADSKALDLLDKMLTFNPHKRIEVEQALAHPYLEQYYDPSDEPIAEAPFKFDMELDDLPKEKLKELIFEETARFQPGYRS
Chain of Serine/threonine-protein kinase N2 (Homo sapiens) (Q16513 whole entry, looked up): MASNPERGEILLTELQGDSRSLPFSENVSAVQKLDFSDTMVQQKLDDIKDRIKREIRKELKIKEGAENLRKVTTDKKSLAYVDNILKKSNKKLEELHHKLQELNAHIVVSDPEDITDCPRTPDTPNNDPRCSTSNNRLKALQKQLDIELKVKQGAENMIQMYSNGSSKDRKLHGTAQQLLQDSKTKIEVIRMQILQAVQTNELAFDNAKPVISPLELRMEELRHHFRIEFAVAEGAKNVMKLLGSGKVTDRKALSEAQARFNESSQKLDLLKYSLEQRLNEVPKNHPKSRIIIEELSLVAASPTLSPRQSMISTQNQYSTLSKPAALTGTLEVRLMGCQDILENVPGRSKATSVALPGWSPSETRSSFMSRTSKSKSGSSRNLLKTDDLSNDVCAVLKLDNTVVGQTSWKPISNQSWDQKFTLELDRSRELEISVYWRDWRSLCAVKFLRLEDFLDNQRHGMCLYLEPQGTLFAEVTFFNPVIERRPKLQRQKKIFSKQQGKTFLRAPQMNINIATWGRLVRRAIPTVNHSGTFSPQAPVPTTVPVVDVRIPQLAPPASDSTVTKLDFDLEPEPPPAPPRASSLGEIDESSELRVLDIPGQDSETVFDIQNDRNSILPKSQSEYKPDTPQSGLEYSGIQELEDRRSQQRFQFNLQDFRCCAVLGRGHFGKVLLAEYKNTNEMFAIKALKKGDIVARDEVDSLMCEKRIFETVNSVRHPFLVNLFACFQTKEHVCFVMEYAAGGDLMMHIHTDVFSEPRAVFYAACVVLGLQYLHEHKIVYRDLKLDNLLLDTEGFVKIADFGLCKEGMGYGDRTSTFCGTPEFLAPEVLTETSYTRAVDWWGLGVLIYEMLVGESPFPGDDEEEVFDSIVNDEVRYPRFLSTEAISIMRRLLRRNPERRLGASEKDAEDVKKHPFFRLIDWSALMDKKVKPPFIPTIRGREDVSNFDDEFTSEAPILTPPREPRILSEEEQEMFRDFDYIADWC
Chain of BDNF/NT-3 growth factors receptor (Homo sapiens) (Q16620 32-822 limits assumed): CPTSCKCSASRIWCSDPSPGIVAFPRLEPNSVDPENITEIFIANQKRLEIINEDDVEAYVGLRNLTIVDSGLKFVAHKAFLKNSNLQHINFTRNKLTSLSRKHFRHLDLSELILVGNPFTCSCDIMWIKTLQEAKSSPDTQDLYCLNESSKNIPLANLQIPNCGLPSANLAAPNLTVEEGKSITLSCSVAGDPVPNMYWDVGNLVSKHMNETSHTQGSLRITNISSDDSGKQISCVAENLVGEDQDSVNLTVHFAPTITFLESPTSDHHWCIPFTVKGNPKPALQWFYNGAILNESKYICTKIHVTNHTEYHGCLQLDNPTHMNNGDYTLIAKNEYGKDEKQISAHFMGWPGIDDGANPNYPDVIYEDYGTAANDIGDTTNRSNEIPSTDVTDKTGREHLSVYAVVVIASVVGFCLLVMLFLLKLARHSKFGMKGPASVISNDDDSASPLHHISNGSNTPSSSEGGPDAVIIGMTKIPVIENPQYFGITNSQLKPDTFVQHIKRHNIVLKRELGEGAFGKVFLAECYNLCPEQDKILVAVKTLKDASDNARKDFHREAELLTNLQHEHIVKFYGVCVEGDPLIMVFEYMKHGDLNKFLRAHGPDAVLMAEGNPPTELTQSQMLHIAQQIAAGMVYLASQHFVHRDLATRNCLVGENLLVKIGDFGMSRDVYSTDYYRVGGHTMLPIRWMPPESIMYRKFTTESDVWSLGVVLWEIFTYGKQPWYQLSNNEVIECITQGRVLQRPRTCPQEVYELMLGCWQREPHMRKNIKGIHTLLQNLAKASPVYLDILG
Chain of Rho-associated protein kinase 1 (Homo sapiens) (Q13464 2-1354 limits assumed): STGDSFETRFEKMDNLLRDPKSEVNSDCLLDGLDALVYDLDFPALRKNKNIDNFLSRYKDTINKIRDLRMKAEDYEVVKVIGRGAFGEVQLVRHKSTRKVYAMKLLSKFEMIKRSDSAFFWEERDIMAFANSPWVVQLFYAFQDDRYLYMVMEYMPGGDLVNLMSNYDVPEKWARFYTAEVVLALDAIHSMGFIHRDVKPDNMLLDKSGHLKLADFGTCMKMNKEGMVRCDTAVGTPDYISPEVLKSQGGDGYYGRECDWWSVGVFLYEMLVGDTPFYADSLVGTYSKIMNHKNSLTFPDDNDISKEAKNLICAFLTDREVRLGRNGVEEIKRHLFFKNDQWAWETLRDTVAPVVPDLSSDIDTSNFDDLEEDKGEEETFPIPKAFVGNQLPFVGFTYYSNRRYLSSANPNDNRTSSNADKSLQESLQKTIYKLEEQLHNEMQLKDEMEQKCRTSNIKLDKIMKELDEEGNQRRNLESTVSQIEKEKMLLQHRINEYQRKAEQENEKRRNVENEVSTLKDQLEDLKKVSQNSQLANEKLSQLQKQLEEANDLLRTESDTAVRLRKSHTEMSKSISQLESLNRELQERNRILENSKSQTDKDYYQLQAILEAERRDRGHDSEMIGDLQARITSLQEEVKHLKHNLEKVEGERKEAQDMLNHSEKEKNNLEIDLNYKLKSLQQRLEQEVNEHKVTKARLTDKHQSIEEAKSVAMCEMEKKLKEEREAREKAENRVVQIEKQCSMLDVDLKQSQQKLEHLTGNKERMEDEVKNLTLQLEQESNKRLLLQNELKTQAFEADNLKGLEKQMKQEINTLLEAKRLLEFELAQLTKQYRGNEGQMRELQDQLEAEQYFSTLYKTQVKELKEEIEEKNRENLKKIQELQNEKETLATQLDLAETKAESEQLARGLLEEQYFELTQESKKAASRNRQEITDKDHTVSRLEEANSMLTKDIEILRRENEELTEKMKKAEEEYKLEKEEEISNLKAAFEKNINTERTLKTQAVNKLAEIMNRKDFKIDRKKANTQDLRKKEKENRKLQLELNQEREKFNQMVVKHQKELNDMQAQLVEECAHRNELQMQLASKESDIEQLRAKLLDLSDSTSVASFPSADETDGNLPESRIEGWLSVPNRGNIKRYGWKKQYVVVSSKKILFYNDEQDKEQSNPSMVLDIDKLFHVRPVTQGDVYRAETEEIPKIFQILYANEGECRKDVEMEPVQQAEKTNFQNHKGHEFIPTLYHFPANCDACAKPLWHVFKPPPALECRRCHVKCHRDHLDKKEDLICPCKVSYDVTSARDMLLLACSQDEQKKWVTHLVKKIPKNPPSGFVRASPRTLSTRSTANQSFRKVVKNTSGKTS

residual activity [1] | residual activity [2] | residual activity [3] | residual activity [4] | residual activity [5] | residual activity [6] | residual activity [7] | residual activity [8] | residual activity [9] | residual activity [10] | residual activity [11] | residual activity [12] | IC50 (Angiopoietin-1 receptor) | Compound
90% | 82% | 108% | 104% | 57% | 97% | 104% | 84% | 116% | 96% | 85% | 96% | 72 nM | COc1cc2c(Oc3ccc(-c4nc5ccccc5s4)cc3)ncnc2cc1OCCCN1CCCC1
96% | 98% | 93% | 100% | 68% | 107% | 95% | 49% | 194% | 97% | 75% | 101% | 88 nM | COc1cc2c(Oc3ccc(-c4nc5ccccc5s4)cc3F)ncnc2cc1OCCCN1CCN(C)CC1
96% | 91% | 109% | 95% | 75% | 115% | 93% | 68% | 186% | 92% | 95% | 98% | 44 nM | COc1cc2c(Oc3ccc(-c4nc5ccccc5s4)cc3)ncnc2cc1OCCCN1CCN(C)CC1
